Test results reported in patent US20240002424A1, “HEXOSAMINE COMPOUNDS AND METHODS THEREOF” (National Institute of Immunology, priority 2021, published 2024).

Key:
Format in all cases: cell-based, human
HL-60 cells [1] = experiment: Far-western blot of total lysates with biotinylated SNA; conditions: HL-60 lysates; 50 μM, 72 h
Description: After 72 h, cells were harvested and lyzed in RIPA buffer containing PIC. Protein concentration in the soluble fraction was estimated using Bradford assay, subjected to 10% SDS-PAGE, blotted onto nitrocellulose membranes (constant current 250 mA, 3 h, 4° C.). Membranes were blocked using 2% w/v gelatin (5.0 mL) in 0.1% PBS-T at room temperature. After 1h, membranes were incubated with either bMAL-II (1:2000, stock conc. 1.0 mg/mL) or bSNA (1:5000, stock conc. 2.0 mg/mL) in 0.1% PBS-T (5.0 mL) at room temperature. After 1 h, membranes were washed using 0.1% PBS-T (6×5.0 mL, 5.0 min), followed by incubation with HRPconjugated avidin (1:50000, stock conc. 2.0 mg/mL) in 0.1% PBS-T (5.0 mL). After 30 min, membranes were washed using 0.1% PBS-T (6×5.0 mL, 5.0 min). Blots were developed using enhanced chemiluminescence substrate and photographic films. Blots using anti-β-actin (as mentioned above) were performed in parallel as loading controls. At least two independent replicate experiments were performed.

Jurkat cells [2] = experiment: GalNAz expression on the cell surface, co-incubation with Ac4GalNAz (3), DBCO-Cy5 flow cytometry; conditions: 50 μM co-incubated with 3 (50 μM)
Description: Effect of ManNAc analogues on NeuAz and GalNAz expression: Jurkat cells were incubated under various conditions, namely, (i) D, 1c, 3, 1a, or 1b alone, (ii) 1a or 1b in combination with 1c, (iii) 1a or 1b in combination with 3. After 24 h, cells were harvested, washed, labelled using DBCO-Cy5 ([…]), processed, and analysed by flow cytometry as mentioned above
The high degree of selectivity of ManNAc analogues for processing by the sialic acid biosynthetic pathway was further confirmed by competitive studies using Ac4GalNAz (3) which is known to be processed through both the mucin-type O-glycosylation (MTOG) and β-O-GlcNAc-ylation pathways. The expression of NeuAz by 1c was suppressed by 1a or 1b (50 μM) to an extent of 50% upon co-incubation. By contrast, no reduction in the expression of N-azidoacetyl-D-galactosamine (GalNAz) on the cell surface was noticed upon co-incubation of 3 (50 μM) with 1a or 1b (50 μM) (FIG. 6E and FIG. 7C).

Jurkat cells [3] = experiment: NeuAz expression on the cell surface by SPAAC with DBCO-Cy5 and flow cytometry, competition with Ac4ManNAz (1c); conditions: analogue 10 μM first, 1c 50 μM added at 12 h, estimation at 48 h
HL-60 cells [4] = experiment: Cell surface sialyl-Lewis-X (CD15s) by anti-CD15s (CSLEX1) flow cytometry; conditions: 50 μM, 24 h
Description: Effect of ManNAc analogues on the expression of sialyl-Lewis-X and Lewis-X: HL-60 cells (3.0×10^5 cells/mL in 2.0 mL complete medium in 6 well plate) were treated with D (vehicle), 1a, 1b, 1c, 1d, 1e, 1f, or 1g (50 PM), along with untreated (U) control. After 24 h, cells were harvested and washed with PBS (3×0.5 mL, 3000×g, 3.0 min at room temperature). Prior to last wash, cells were counted using Z2 coulter counter and aliquoted at 2.5×10^5 cells per sample and stained with either mouse anti-human CD15s (CSLEX1) (1.25 μg/mL) or mouse anti-human CD15 (HI98) (2.5 μg/mL) in HEPES/CaCl2) buffer (30 mM HEPES, 110 mM NaCl, 10 mM KCl, 2 mM MgCl2, 10 mM glucose, 1.5 mM CaCl2) containing 0.1% bovine serum albumin, pH 7.3) (total volume of 100 μL) for 30 min at 4° C. Cells were washed with HEPES/CaCl2 buffer (2×0.5 mL) and stained with AlexaFluor488-conjugated anti-mouse IgM (2.5 μg/mL) (for both CD15s and CD15) in 100 μL HEPES/CaCl2 for 30 min at 4° C. Cells were washed with HEPES/CaCl2 buffer (2×0.5 mL), resuspended in PBS (0.2 mL), treated with PI (2.5 μg/ml) and analysed by BD FACSVerse. Samples treated with (i) isotype antibodies followed by secondary antibody and (ii) secondary antibody alone were prepared as controls. Single Cells were gated for PI-negative population for 10,000 events and analysed by flow cytometry. Two replicate samples were prepared for each condition and each sample was counted twice. Three independent experiments were performed. Data was analysed using FlowJo V10. For plotting graph and calculation of significant probability ‘p’ values, two-way ANOVA with Dunnett's multiple comparison tests was employed in GraphPad Prism 8.
Time course of CD15s expression: HL-60 cells (3.0×10^5 cells/mL in 2.5 mL complete medium in 6-well plates) were incubated with D, 1a, 1b, or 1d (50 mM). At each time point, from day 1 to day 6, the cells were harvested from the entire contents of the well, washed, and aliquoted to 5.0×10^5 cells per sample, and immuno-stained using anti-CD15s (CSLEX1) antibody as mentioned above. On day 3, 4, and 5 complete media (1.0 mL) was added to each remaining well in order to compensate for media exhaustion. No contents were removed from the well during the period.

HL-60 cells [5] = experiment: MAL-II lectin binding on intact cells by flow cytometry; conditions: 50 μM, 24 h
HL-60 cells [6] = experiment: Cell surface sialyl-Lewis-X (CD15s) by anti-CD15s (CSLEX1) flow cytometry

SMILES	SNA epitopes in lectin blot compared to controls (HL-60 cells [1])	reduction in expression of GalNAz on the cell surface (Jurkat cells [2])	suppression of NeuAz expression, delayed addition of 1c (Jurkat cells [3]) [%]	increase in binding of CSLEX1 antibody (sLeX) compared to controls (HL-60 cells [4]) [fold]	MAL-II binding on intact cells compared to untreated cells (HL-60 cells [5])	change in sLeX levels in time course (in words) (HL-60 cells [6]; 50 μM, time course)	maximum increase in sLeX levels on day 2 (HL-60 cells [6]; single dosage 50 μM, day 2) [fold]	sLeX levels by day 6 (in words) (HL-60 cells [6]; single dosage 50 μM, day 6)	sLeX levels on day 6, fold higher (HL-60 cells [6]; single dosage 50 μM, day 6)	day of peak sLeX expression (HL-60 cells [6]; single dosage 50 μM, time course day 1 to day 6) [days]	increase in binding of CSLEX1 antibody (sLeX), in words (HL-60 cells [4])
CC(=O)OC[C@H]1O[C@H](OC(C)=O)[C@@H](NC(=O)C2CC2)[C@@H](OC(C)=O)[C@@H]1OC(C)=O [Compound 1a, 1,3,4,6-tetra-O-acetyl-2-cyclopropanoylamino-2-deoxy-α-D-mannopyranose]	significant reduction	no reduction	30	~2.5	significant gain	–	–	–	–	–	–
CC(=O)NC1C(OC(C)=O)OC(COC(C)=O)[C@@H](OC(C)=O)[C@@H]1OC(C)=O (stereo partly drawn) [Compound 1d, 1,3,4,6-tetra-O-acetyl-2-acetylamino-2-deoxy-α/β-D-mannopyranose]	–	–	–	–	–	no change	–	–	–	–	–
CC(=O)OC[C@H]1OC(OC(C)=O)[C@@H](NC(=O)C2CCC2)[C@@H](OC(C)=O)[C@@H]1OC(C)=O (stereo partly drawn) [Compound 1b, (3S,4R,5S,6R)-6-(acetoxymethyl)-3-(cyclobutanecarboxamido)tetrahydro-2H-pyran-2,4,5-triyl triacetate]	significant reduction	no reduction	50	–	significant gain	–	3.0	returned to normal levels	approximately 2.3 fold	2	nearly a four-fold increase
